Several values for one entry are separate records, joined by “and”; a condition that tells them apart may be missing. Identical values can stand only once.
Test system: M. bovis BCG
Experiment: microbe, parasite or virus in culture
Format: cell-based, Mycobacterium bovis DSM-43990 (BCGT)
Conditions: not given

Structure (SMILES)	MIC50 relative to KD (MIC50 = x × KD)
C=CC(c1ccc(-c2ccc(OC)c(OC)c2)cc1)n1ccnc1 (stereo not drawn) [Compound S3, 1‐(1‐(3’,4’‐dimethoxy‐[1,1’‐biphenyl]‐4‐yl)allyl)‐1H‐imidazole]	> 2
C=CC(c1ccc(-c2ccc3[nH]ccc3c2)cc1)n1ccnc1 (stereo not drawn) [Compound S10, 5‐(4‐(1‐(1H‐imidazol‐1‐yl)allyl)phenyl)‐1H‐indole]	> 2
C=CC(c1ccc(-c2ccc3c(c2)OCO3)cc1)n1ccnc1 (stereo not drawn) [Compound S5, 1‐(1‐(4‐(benzo[d][1,3]dioxol‐5‐yl)phenyl)allyl)‐1H‐imidazole]	> 2
C=CC(c1ccc(-c2ccc(OC)c(C)c2)cc1)n1ccnc1 (stereo not drawn) [Compound S4, 1‐(1‐(4’‐methoxy‐3’‐methyl‐[1,1’‐biphenyl]‐4‐yl)allyl)‐1H‐imidazole]	> 2
C=CC(c1ccc(-c2ccc3c(c2)OCO3)cc1F)n1ccnc1 (stereo not drawn) [Compound S8]	> 2

Same assay, conditions: Mycobacterium tuberculosis variant bovis BCG, BCG, read-out: MIC50

Structure (SMILES)	IC50
Clc1ccc(COC(Cn2ccnc2)c2ccc(Cl)cc2Cl)cc1 (stereo not drawn) [Econazole, reference compound]	2.6 µg/mL and 12.7 µM

— publication PMC8519103 (Chemmedchem, 2021)
